Like-named read-outs stand apart in the source and are kept apart here.
How the values were obtained:
[1] = molecular target: T1, AC1/CaM PPI (Homo sapiens, UniProt P0DP23); experiment: AC1/CaM NanoBiT assay in HEK293T cells; assay type: cell-based; conditions: HEK293T, thapsigargin-stimulated, AUC; read-out: Nanobit: AC1-CaM IC50 (μM ± SEM)
T1 construct: human AC1 (hAC1) residues 1–1,118 were cloned; The hCaM residues 1–149, residues 1–1,248 of rat AC8 (rAC8); expressed in transfected cells; host or cells: HEK293T, transient transfection

[2] = molecular target: T2, AC1-C1b/CaM (Homo sapiens, UniProt P0DP23); experiment: AC1-C1b/CaM fluorescence polarization (FP) assay; assay type: binding; conditions: for IC50: 100 nM AC1-C1b, 100 nM GST-CaM, 95% CI in brackets; for Ki: Cheng-Prusoff from FP IC50 and Kd; for AC1-CaM FP % inhib: relative to 100 μM CDZ (100% inhibition), highest concentration tested
T2 construct: made in house; host or cells: E. coli BL21-CodonPlus (DE3)-RIPL

[3] = molecular target: T3, AC8-Nt/CaM (Homo sapiens, UniProt P0DP23); experiment: AC8-Nt/CaM FP counterscreen assay; assay type: binding; conditions: for Ki: Cheng-Prusoff from FP IC50 and Kd, n/i given where none; for Ki ratio (AC8 NT/AC1): ratio >1: more potent in AC1/CaM FP;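 as to all read-outs here: fluorescence polarization of AC peptide binding GST-CaM in HEPES buffer with CaCl2, compound preincubated with CaM 30 min, peptide read after 2 h at room temperature in dark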
T3 construct: made in house; host or cells: E. coli BL21-CodonPlus (DE3)-RIPL

[4] = molecular target: T4, AC8-C2b/CaM (Homo sapiens, UniProt P0DP23); experiment: AC8-C2b/CaM FP counterscreen assay; assay type: binding; conditions: for Ki: Cheng-Prusoff from FP IC50 and Kd, n/i given where none; for Ki ratio (AC8-C2b/AC1): ratio >1: more potent in AC1/CaM FP;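 as to all read-outs here: fluorescence polarization of AC peptide binding to GST-CaM in HEPES buffer with KCl and 50 µM CaCl2, compound preincubated 30 min with GST-CaM, DMSO and calmidazolium as controls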
T4 construct: made in house; host or cells: E. coli BL21-CodonPlus (DE3)-RIPL

[5] = tested on: HEK293T cells; experiment: CellTiter-Glo 2.0 cell viability assay; assay type: cell-based; conditions: for decrease in cell viability at AC1/CaM IC50: at AC1/CaM NanoBiT IC50;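 as to all read-outs here: luminescence read-out after 30 min compound exposure at 37 °C in HEPES-buffered HBSS, scaled to vehicle-treated cells as 100% and cell-free buffer wells as 0%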
[6] = CellTiter-Glo 2.0 cell viability assay; assay type: cell-based; conditions: human, HEK293T cells, pH 7.4; at the compound's AC1/CaM NanoBiT IC50 concentration; read-out: % Viable Cells at AC1 IC50;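 also: luminescence read-out after 30 min compound exposure at 37 °C in HEPES-buffered HBSS, scaled to vehicle-treated cells as 100% and cell-free buffer wells as 0%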
[7] = molecular target: T5, AC8/CaM PPI (Homo sapiens, UniProt P0DP23); experiment: AC8/CaM NanoBiT assay in HEK293T cells; assay type: cell-based, rat; conditions: HEK293T, thapsigargin-stimulated, AUC; read-out: Nanobit: AC8-CaM IC50 (μM ± SEM)
T5 construct: confirmed as an AC1/AC8 non-selective hit against full-length AC1- and AC8-CaM in the NanoBiT assay; The hCaM residues 1–149, residues 1–1,248 of rat AC8 (rAC8); expressed in transfected cells; host or cells: HEK293T, transient transfection

[8] = molecular target: T6, AC1 (Homo sapiens, UniProt Q08828); experiment: cAMP accumulation assay, AC1-HEK Δ3/6 KO cells; assay type: cell-based
T6 construct: expressed in transfected cells
T6 sequence (Q08828 whole entry): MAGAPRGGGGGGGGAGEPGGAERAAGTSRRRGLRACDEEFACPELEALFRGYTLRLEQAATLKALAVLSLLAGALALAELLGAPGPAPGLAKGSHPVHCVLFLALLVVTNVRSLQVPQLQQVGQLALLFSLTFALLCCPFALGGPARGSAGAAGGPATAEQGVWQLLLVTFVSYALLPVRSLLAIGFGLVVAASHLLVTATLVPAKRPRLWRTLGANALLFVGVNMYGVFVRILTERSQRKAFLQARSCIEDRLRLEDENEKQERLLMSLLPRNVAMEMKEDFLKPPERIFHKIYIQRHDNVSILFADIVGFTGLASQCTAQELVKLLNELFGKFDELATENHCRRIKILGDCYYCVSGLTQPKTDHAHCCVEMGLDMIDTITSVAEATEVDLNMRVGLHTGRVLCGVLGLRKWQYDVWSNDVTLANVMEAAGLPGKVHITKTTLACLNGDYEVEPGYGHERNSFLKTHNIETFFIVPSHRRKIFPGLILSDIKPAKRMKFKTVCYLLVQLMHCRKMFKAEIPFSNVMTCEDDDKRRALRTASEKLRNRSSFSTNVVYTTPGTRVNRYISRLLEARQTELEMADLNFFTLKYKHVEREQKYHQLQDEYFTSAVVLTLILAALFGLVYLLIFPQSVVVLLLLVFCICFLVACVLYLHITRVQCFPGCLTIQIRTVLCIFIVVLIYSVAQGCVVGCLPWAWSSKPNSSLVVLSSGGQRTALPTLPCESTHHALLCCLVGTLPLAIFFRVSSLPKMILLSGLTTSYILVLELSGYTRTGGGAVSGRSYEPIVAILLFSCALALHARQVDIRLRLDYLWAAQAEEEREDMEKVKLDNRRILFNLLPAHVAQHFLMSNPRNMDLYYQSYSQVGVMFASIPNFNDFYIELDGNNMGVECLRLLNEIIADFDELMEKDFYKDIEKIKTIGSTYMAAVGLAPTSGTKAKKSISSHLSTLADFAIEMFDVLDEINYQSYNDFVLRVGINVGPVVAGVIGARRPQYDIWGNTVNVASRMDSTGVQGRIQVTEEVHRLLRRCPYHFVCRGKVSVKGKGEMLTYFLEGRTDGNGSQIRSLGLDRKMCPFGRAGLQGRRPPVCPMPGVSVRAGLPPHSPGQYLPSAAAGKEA
Experimental: Cells were then incubated for 1 h at 37°C and 5% CO2. Cells were then treated with varying concentrations of inhibitors for 30 min, followed by treatment with calcium ionophore A23187 (3 μM) in 500 μM 3-isobutyl-1-methylxanthine (IBMX), a phosphodiesterase inhibitor, for 1 h at RT (Sigma Aldrich, St. Louis, MO). Finally, Cisbio HTRF detection reagents were added and incubated for 1–24 h at RT. Plates were read according to manufacturer’s protocol on an HTRF-compatible plate reader at 620 and 665 nm cAMP concentrations were interpolated from a cAMP standard curve. […] For cytotoxicity assays, compounds were tested at 30 μM and this protocol was used with the exception of detection reagents; CellTiter-Glo 2.0 reagent was used according to manufacturer’s protocol and luminescence was read on the Synergy Neo2 plate reader. Data are normalized to cells treated with vehicle (100%) or 2% tween (0%) and are represented as the percent of vehicle, from the average of three independent experiments (N = 3).

[9] = molecular target: T7, AC8 (Homo sapiens, UniProt P40145); experiment: cAMP accumulation assay, AC8-HEK Δ3/6 KO cells; assay type: cell-based; conditions: for IC50: CDI analog SAR set, 3 μM A23187, read-out: IC50 (μM) ± SEM AC8
T7 construct: expressed in transfected cells
T7 sequence (P40145 whole entry, species assumed): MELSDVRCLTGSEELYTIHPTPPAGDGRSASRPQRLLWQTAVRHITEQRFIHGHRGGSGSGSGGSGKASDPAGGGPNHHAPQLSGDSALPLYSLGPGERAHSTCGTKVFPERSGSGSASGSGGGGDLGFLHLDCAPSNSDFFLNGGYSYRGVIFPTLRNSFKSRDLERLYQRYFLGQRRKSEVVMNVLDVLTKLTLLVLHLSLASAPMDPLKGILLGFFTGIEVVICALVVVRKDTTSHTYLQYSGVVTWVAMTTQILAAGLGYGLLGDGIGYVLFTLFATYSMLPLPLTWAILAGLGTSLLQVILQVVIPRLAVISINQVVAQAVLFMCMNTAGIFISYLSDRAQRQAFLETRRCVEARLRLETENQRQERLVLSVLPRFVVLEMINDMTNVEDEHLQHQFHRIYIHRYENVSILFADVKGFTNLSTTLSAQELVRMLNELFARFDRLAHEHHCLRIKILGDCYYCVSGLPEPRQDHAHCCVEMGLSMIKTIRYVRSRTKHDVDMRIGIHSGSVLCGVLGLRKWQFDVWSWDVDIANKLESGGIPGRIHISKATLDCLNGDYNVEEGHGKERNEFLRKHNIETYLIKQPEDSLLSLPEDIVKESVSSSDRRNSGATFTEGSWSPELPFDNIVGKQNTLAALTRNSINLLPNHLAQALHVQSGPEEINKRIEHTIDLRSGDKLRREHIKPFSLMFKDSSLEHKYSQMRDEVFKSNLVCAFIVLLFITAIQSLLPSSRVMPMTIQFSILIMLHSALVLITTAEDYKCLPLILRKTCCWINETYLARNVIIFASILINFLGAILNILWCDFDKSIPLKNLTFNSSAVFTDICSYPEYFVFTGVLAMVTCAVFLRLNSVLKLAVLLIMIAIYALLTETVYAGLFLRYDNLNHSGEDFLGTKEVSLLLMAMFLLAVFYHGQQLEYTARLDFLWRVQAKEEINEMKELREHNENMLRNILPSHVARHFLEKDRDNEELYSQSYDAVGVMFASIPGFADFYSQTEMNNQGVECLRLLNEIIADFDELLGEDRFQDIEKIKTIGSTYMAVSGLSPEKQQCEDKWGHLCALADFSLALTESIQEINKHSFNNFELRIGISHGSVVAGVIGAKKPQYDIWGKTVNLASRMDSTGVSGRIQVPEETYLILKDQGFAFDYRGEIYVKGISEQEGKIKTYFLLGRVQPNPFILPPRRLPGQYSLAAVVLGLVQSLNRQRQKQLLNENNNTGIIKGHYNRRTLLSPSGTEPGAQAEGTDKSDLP
Experimental: (§1) Cryopreserved HEK293 cells with AC3 and AC6 knocked out, and stably expressing AC1, AC2, AC5, or AC8 (AC1-HEK Δ3/6 KO, AC2-HEK Δ3/6 KO, AC5-HEK Δ3/6 KO, or AC8-HEK Δ3/6 KO cells, respectively; [Soto-Velasquez et al., 2018]) were plated at 5,000 cells/well. Cells were then incubated for 1 h at 37°C and 5% CO2. Cells were then treated with varying concentrations of inhibitors for 30 min, followed by treatment with calcium ionophore A23187 (3 μM) in 500 μM 3-isobutyl-1-methylxanthine (IBMX), a phosphodiesterase inhibitor, for 1 h at RT (Sigma Aldrich, St. Louis, MO). Finally, Cisbio HTRF detection reagents were added and incubated for 1–24 h at RT. Plates were read according to manufacturer’s protocol on an HTRF-compatible plate reader at 620 and 665 nm cAMP concentrations were interpolated from a cAMP standard curve. […] For cytotoxicity assays, compounds were tested at 30 μM and this protocol was used with the exception of detection reagents; CellTiter-Glo 2.0 reagent was used according to manufacturer’s protocol and luminescence was read on the Synergy Neo2 plate reader. Data are normalized to cells treated with vehicle (100%) or 2% tween (0%) and are represented as the percent of vehicle, from the average of three independent experiments (N = 3).

[10] = Cytotoxicity assay (CellTiter-Glo 2.0) in AC1-HEK Δ3/6 KO cells; assay type: cell-based; conditions: human, percent of vehicle, read-out: % Viable Cells at AC1 30 μM
Experimental: as §1

[11] = initial examination, 10,000 cells per well, 3 μM A23187, 1 h RT, read-out: AC1 IC50 ± SEM
[12] = CDI analog SAR set, 3 μM A23187, read-out: IC50 (μM) ± SEM AC1

Row | Compound | IC50 [1] | IC50 [2] | Ki [2] | Ki [3] | Ki [4] | IC50 [7] | IC50 [8, 12] | IC50 [9] | viability at 30 min [6] | viability at 30 min, 30 μM [10] | also measured
1 | Cc1cc2nc3ccc(N(C)C)cc3[s+]c2cc1N [Compound 1, Tolonium Chloride] | 32.9 ± 1.01 µM | 1.24 µM | 0.29 µM | 2.3 µM | 0.44 µM | 8.4 ± 1.19 µM | – | – | 80% | – | Ki ratio (AC8 NT/AC1) [3]: 7.9; Ki ratio (AC8-C2b/AC1) [4]: 1.5; decrease in cell viability at AC1/CaM IC50 [5]: greater than 10%
2 | CCCCCCCCOc1ccccc1C(=O)Nc1ccc(C(=O)OCC[N+](C)(CC)CC)cc1 [Compound 7, Otilonium] | 18.8 ± 1.16 µM | 17.1 µM | 4.1 µM | 6.3 µM | 10.3 µM | 12.8 ± 1.22 µM | – | – | 96% | – | AC1-CaM FP % inhib [2]: 92%; Ki ratio (AC8 NT/AC1) [3]: 1.6; Ki ratio (AC8-C2b/AC1) [4]: 2.5; cell viability reduced at highest concentration tested ([5]; 316 μM): ~50%
3 | CCc1oc2ccccc2c1C(=O)c1cc(Br)c(O)c(Br)c1 [Compound 12, Benzbromarone] | 1.7 ± 1.17 µM | 33 µM | 7.8 µM | 52.1 µM | 23.8 µM | 4.16 ± 1.15 µM | – | – | 90% | – | inhibition of AC1 activity (efficacy) ([8]; initial characterization of hits, data not shown): ~75%; IC50 [8, 11]: 4.09 ± 2.41 µM; AC1-CaM FP % inhib [2]: 47%
4 | CNC(=O)C1=C(Nc2ccc(N(C)C)cc2)c2ccccc2S1(=O)=O [Compound 20] | 63 ± 1.34 µM | 43 µM | 10.2 µM | 5.9 µM | 4.5 µM | 70.3 ± 1.13 µM | – | – | 100% | – | IC50 [8, 11]: 66.3 ± 33.3 µM; AC1-CaM FP % inhib [2]: ~70%; Ki ratio (AC8 NT/AC1) [3]: 0.58; Ki ratio (AC8-C2b/AC1) [4]: 0.44
5 | Cc1cc(C(c2cccs2)N2CCC(C)CC2)c(NC(=O)c2ccco2)s1 (stereo not drawn) [Compound 23] | – | – | – | – | – | – | 3.08 ± 0.25 µM | 4.21 ± 1.01 µM | – | 100% | –
6 | CN1CCN(C(c2cccs2)c2c(NC(=O)c3ccco3)sc3c2CCCC3)CC1 (stereo not drawn) [Compound 27] | – | – | – | – | – | – | 34.8 ± 13 µM | 25.6 ± 6.77 µM | – | 48% | –
7 | CCN1CCN(C(c2cccs2)c2c(NC(=O)c3ccco3)sc3c2CCCC3)CC1 (stereo not drawn) [Compound 28] | – | – | – | – | – | – | 20 ± 5.23 µM | 11.6 ± 1.82 µM | – | 88% | fold more potent at AC8 than AC1 ([9]; cAMP accumulation IC50s): 2 fold
8 | Cc1cc(C(c2cccs2)N2CCOCC2)c(NC(=O)c2ccco2)s1 (stereo not drawn) [Compound 30] | – | – | – | – | – | – | 10.6 ± 2.72 µM | 4.99 ± 1.1 µM | – | 100% | –
9 | CCc1cc(C(c2cccs2)N2CCOCC2)c(NC(=O)c2ccco2)s1 (stereo not drawn) [Compound 31] | – | – | – | – | – | – | 5.25 ± 1.07 µM | 1.49 ± 0.38 µM | – | 37% | –
10 | CCc1cc(C(Nc2ccccn2)c2cccs2)c(NC(=O)c2ccco2)s1 (stereo not drawn) [Compound 33] | – | – | – | – | – | – | 3.58 ± 2.26 µM | 2.7 ± 1.92 µM | – | 88% | –

The next lines start with results.

Row | IC50 [1] | IC50 [2] | Ki [2] | Ki [3] | Ki [4] | IC50 [7] | IC50 [8, 12] | IC50 [9] | Compound | viability at 30 min [6] | viability at 30 min, 30 μM [10] | also measured
11 | 17.9 ± 1.15 µM | 2.8 µM | 0.67 µM | 1.1 µM | 2.6 µM | 16.5 ± 1.15 µM | – | – | CCCCC(CC)CNC(=N)NC(=N)NCCCCCCNC(=N)NC(=N)NCC(CC)CCCC (stereo not drawn) [Compound 3, Alexidine] | 75% | – | AC1-CaM FP % inhib [2]: 103%; Ki ratio (AC8 NT/AC1) [3]: 1.6; Ki ratio (AC8-C2b/AC1) [4]: 3.9; decrease in cell viability at 100 μM ([5]; 100 μM): 70%; decrease in cell viability at AC1/CaM IC50 [5]: 25%
12 | – | – | – | – | – | – | 2.48 ± 0.39 µM | 3.23 ± 0.57 µM | CCc1cc(C(c2cccs2)N2CCCCC2)c(NC(=O)c2ccco2)s1 (stereo not drawn) [Compound 22] | – | 97% | –
13 | – | – | – | – | – | – | 4.39 ± 0.44 µM | 2.92 ± 1.36 µM | CCc1cc(C(c2cccs2)N2CCN(CC)CC2)c(NC(=O)c2ccco2)s1 (stereo not drawn) [Compound 26] | – | 61% | –
14 | – | – | – | – | – | – | 10.3 ± 1.45 µM | 14.4 ± 4.1 µM | CCc1cc(C(c2ccccc2)N2CCN(C)CC2)c(NC(=O)c2ccco2)s1 (stereo not drawn) [Compound 29] | – | 65% | fold reduction in AC1 potency compared to 15 ([8]; matched molecular pair 15): ~2 fold; fold reduction in AC8 potency compared to 15 ([9]; matched molecular pair 15): ~3 fold

Source: article PMC9486168, “Protein-protein interaction-based high throughput screening for adenylyl cyclase 1 inhibitors: Design, implementation, and discovery of a novel chemotype” (Frontiers in Pharmacology, 2022)
